Reference: patent US20090209556A1, “SOLUBLE GUANYLATE CYCLASE ACTIVATORS” (priority 2007, published 2009)

Target: T1, Human recombinant sGC enzyme (Homo sapiens, UniProt Q02108+Q02153)
T1 construct: purchased Axxora, LLC (San Diego, Calif.)
T1 sequence (Q02153 1-619): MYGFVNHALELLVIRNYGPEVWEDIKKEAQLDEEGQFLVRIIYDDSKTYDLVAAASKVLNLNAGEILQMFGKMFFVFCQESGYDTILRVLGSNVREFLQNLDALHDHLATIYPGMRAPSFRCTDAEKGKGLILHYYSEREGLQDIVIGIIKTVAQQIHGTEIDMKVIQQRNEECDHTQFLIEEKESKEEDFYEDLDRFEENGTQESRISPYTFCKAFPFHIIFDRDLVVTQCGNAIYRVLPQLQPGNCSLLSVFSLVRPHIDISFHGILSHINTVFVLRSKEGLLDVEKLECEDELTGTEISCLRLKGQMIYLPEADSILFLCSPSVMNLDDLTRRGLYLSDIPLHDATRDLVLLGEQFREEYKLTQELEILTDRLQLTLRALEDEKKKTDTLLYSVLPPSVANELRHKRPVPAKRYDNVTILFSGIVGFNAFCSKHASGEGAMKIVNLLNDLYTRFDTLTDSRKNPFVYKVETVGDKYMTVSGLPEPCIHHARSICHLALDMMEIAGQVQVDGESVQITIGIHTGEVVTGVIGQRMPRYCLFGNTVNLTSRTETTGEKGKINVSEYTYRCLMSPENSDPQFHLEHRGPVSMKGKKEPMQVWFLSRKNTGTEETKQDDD
T1 sequence (Q02108 1-690): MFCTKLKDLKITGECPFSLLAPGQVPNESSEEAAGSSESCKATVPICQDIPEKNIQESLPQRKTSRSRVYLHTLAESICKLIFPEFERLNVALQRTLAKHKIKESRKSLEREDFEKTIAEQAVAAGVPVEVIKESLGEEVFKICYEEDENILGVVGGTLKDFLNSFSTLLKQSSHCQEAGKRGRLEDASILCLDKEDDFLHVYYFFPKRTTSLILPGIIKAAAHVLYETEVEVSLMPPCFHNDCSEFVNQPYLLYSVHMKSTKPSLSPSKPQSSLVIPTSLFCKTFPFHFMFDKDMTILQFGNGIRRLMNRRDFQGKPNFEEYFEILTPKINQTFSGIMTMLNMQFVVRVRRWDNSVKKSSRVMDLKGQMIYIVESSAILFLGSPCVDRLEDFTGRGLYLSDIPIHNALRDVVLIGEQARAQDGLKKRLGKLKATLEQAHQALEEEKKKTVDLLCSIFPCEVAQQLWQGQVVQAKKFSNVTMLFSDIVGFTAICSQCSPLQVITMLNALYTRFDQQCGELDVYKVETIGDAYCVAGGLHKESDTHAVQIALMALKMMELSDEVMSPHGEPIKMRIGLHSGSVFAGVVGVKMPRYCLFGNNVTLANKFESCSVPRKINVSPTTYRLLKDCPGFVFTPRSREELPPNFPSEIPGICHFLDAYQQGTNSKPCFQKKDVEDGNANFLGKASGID
Test: Measurement of soluble guanylyl cyclase activation (enzyme-based), PCASA cell-free enzymatic assay, cGMP by HTRF
Assay type: biochemical
Conditions: purified sGC 0.1 ng, substrate GTP, 1 hr at 37° C.
Protocol: Measurement of Soluble Guanylyl Cyclase ([…]) Activation (Enzyme-Based)
Activities of test compounds against purified sGC were evaluated in PCASA assay which is a cell-free enzymatic assay.
Human recombinant sGC enzyme with greater than 95% purity was obtained from Axxora, LLC (San Diego, Calif.). Compounds were incubated with 0.1 ng of sGC enzyme in presence of its substrate GTP for 1 hr at 37° C. At the end of the incubation period, the reaction was stopped and the amount of cGMP generated was measured by an HTRF-based assay (CisBio, 62GN2PEC), which detects the displacement of a fluorophore-labeled cGMP from its specific antibody.
Inflection point, maximum % of activation, and EC50 were derived based on the plot of compound concentration vs % activation.

**Q.** O=C(O)c1cnn(-c2cccc(-c3cc(Cl)ccc3OCc3ccc([C@H]4CC[C@H](C(F)(F)F)CC4)cc3)n2)c1C(F)(F)F [Example 9] was tested. Which EC50 did it give?
**A.** 1.7 nM
